Data on five compounds can be found in ChEMBL document CHEMBL5291721, “A preclinical secondary pharmacology resource illuminates target-adverse drug reaction associations of marketed drugs” (Nat Commun, 2023).

One assay addresses Melanocortin receptor 3 (Homo sapiens, UniProt P41968).
Assay [1] deals with T1, Equilibrative nucleoside transporter 1 (Homo sapiens, UniProt Q99808).
T1 sequence (Q99808 whole entry): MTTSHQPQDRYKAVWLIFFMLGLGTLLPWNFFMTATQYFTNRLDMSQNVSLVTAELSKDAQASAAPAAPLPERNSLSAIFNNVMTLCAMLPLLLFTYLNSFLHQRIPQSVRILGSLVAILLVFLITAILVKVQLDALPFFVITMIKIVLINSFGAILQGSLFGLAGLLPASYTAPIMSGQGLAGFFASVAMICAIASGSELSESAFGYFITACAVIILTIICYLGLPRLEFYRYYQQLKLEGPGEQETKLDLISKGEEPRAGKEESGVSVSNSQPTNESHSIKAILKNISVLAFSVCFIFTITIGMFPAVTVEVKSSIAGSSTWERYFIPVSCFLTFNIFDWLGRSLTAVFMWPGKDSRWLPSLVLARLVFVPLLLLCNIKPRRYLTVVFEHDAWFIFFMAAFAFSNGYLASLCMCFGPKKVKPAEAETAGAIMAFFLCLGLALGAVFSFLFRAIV

For assay [2], the target named is 5-hydroxytryptamine receptor 2B (Homo sapiens, UniProt P41595). The format is functional, cell-based.
Assay [3] has as its target Sodium-dependent dopamine transporter (Homo sapiens, UniProt Q01959).
For assay [4], the target named is T2, Muscarinic acetylcholine receptor M2 (Homo sapiens, UniProt P08172).
T2 sequence (P08172 whole entry): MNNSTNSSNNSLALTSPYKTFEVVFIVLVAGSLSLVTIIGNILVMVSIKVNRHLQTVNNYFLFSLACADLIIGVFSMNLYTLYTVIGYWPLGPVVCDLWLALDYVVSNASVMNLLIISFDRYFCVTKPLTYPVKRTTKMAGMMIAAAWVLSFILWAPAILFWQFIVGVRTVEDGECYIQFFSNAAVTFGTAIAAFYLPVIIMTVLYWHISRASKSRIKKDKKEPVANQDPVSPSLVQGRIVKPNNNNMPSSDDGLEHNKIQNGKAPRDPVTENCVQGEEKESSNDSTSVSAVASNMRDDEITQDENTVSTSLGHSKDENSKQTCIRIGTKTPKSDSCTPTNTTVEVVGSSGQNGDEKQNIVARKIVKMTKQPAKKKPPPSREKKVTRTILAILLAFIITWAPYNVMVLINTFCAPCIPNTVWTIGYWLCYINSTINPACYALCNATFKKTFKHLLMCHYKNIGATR
The format is functional, cell-based.

Assay [5] addresses Beta-2 adrenergic receptor (Homo sapiens, UniProt P07550).
Assay [6] has as its target T2, Muscarinic acetylcholine receptor M2. The class given is functional, cell-based. The source holds these as a separate data set.
The next assay addresses T3, Adenosine receptor A1 (Homo sapiens, UniProt P30542).
T3 sequence (P30542 whole entry): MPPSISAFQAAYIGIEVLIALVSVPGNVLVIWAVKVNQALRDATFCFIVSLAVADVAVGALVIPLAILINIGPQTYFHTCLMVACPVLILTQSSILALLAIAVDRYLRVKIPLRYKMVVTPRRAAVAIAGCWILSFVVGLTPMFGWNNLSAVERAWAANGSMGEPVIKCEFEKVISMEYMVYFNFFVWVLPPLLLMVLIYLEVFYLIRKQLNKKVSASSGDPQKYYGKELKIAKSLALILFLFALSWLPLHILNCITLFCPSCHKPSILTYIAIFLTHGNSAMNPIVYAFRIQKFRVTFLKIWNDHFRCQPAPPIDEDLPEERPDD

The target in assay [7] is T4, 5-hydroxytryptamine receptor 1A (Homo sapiens, UniProt P08908).
T4 sequence (P08908 whole entry): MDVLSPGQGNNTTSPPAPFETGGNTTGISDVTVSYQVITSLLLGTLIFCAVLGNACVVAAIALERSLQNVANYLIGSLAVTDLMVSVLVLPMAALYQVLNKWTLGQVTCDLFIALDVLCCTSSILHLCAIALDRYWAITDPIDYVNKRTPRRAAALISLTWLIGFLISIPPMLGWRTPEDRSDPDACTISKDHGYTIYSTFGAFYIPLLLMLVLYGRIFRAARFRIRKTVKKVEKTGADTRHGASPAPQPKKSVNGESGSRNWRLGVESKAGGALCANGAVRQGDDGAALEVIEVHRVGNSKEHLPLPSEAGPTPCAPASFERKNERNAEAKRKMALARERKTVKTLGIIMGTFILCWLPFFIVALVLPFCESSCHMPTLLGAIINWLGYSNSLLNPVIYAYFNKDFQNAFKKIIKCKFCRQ
The class given is functional, cell-based.

The target of another assay is T5, Progesterone receptor (Homo sapiens, UniProt P06401).
T5 sequence (P06401 whole entry): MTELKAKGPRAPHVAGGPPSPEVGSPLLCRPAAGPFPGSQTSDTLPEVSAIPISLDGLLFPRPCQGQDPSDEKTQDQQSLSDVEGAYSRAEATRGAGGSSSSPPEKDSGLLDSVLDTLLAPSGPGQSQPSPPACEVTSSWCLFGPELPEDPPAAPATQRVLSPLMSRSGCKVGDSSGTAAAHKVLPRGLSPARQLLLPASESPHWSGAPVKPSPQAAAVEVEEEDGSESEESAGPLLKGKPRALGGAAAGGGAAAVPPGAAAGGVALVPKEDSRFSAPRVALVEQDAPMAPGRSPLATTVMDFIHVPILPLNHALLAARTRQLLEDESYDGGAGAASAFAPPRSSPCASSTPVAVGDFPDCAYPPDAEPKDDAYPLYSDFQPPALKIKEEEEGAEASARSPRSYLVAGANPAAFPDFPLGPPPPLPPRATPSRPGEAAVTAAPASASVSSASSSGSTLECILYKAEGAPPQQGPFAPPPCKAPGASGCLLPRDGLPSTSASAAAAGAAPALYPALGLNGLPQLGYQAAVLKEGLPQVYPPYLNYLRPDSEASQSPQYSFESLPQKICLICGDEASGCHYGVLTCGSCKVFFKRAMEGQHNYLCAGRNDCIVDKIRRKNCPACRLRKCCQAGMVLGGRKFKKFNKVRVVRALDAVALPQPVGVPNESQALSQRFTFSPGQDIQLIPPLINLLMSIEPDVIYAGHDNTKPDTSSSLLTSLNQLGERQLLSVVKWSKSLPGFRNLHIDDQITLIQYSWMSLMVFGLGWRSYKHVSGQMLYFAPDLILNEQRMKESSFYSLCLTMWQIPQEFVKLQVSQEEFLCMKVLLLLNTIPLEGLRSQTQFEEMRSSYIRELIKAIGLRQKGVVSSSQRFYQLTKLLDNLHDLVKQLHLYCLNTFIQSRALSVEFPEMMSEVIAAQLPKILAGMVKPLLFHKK
The class given is functional.

Another assay addresses Motilin receptor (Homo sapiens, UniProt O43193).

“And” between values parts separate entries of the source, which are not always exact repeats. Identical values can stand only once. Where only a bound is given, the exact number is not on record here.
Further: assay procedure not described here.

Motilin receptor, sequence (O43193 whole entry): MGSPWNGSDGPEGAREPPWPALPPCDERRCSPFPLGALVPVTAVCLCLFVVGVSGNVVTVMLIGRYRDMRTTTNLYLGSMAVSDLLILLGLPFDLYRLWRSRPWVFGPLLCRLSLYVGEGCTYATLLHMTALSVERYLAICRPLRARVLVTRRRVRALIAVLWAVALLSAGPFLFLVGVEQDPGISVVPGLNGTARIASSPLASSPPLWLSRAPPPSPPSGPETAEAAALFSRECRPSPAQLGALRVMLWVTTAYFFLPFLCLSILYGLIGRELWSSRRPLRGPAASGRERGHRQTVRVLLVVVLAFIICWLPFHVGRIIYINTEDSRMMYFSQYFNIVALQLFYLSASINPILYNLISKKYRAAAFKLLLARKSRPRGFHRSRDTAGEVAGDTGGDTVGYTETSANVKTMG
5-hydroxytryptamine receptor 2B, sequence (P41595 whole entry): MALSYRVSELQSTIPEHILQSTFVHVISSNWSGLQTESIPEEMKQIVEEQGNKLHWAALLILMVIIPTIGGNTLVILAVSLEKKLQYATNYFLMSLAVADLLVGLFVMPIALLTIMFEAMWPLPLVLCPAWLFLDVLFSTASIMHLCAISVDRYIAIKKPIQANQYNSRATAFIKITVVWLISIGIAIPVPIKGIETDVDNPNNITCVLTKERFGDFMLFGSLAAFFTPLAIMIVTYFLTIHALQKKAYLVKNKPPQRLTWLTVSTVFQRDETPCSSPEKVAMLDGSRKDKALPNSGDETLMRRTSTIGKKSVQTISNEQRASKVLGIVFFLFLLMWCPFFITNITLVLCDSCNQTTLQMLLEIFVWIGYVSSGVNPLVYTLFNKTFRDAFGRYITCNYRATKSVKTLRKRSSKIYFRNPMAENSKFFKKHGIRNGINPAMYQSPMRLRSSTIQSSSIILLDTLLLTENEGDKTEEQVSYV
Sodium-dependent dopamine transporter, sequence (Q01959 whole entry): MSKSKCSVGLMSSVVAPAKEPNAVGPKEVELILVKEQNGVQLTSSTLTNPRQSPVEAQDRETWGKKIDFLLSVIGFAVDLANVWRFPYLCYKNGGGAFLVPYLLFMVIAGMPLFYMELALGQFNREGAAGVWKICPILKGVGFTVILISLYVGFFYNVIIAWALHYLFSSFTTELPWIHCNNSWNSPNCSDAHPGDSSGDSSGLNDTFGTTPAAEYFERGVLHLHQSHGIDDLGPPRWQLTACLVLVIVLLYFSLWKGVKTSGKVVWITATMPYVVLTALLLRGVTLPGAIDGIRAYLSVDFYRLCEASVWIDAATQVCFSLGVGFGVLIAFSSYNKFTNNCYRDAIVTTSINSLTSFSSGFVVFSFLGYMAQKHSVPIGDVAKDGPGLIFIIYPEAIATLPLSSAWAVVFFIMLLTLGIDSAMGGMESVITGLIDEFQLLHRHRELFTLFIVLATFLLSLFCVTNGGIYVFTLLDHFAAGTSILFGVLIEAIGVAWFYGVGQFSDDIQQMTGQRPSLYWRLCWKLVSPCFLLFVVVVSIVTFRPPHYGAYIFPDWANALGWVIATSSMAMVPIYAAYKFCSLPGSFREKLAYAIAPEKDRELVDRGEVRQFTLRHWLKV
Beta-2 adrenergic receptor, sequence (P07550 whole entry): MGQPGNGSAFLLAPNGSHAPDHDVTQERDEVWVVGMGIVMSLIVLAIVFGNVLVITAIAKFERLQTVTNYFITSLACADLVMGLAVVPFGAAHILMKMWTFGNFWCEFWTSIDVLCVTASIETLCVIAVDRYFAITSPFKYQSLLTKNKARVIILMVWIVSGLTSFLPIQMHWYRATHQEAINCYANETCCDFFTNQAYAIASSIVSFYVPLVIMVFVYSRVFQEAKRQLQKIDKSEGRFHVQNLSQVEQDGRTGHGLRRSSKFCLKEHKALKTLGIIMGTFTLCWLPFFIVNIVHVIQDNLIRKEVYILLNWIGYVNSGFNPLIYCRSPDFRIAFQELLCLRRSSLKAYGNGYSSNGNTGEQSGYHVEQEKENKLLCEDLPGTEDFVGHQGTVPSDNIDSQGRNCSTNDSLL
Melanocortin receptor 3, sequence (P41968 whole entry): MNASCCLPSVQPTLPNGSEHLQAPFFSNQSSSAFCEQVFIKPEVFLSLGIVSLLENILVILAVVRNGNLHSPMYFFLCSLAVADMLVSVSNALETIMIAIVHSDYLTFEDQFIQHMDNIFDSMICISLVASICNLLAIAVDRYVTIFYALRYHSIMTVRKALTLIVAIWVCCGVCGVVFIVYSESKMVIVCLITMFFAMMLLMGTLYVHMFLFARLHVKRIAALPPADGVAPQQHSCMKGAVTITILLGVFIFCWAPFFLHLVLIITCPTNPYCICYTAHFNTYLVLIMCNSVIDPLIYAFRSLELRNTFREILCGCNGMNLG

Broadly, the AC50 is the concentration at which the activity in the assay is half-maximal. Consider `CC(N)C12CC3CC(CC(C3)C1)C2` (stereo not given) [RIMANTADINE], for which the AC50 (on Melanocortin receptor 3; in [1]; in assay [2]; in assay [3]; in [4]; in assay [5]) was more than 10 µM in each case. For the same compound, the AC50 (in [6]; at Adenosine receptor A1; in [7]; on Progesterone receptor; on Motilin receptor) was more than 10 µM each time.
For the compound `N[C@@H](CC(=O)N1CCn2c(nnc2C(F)(F)F)C1)Cc1cc(F)c(F)cc1F` [SITAGLIPTIN], the AC50 was more than 30 µM on Melanocortin receptor 3; more than 30 µM in [1]; more than 30 µM in assay [2]; more than 30 µM in [3]; more than 30 µM in assay [4]; more than 10 µM in assay [5]. The AC50 (in assay [6]; on Adenosine receptor A1; in assay [7]; on Progesterone receptor; at Motilin receptor) was more than 30 µM in each case.
As to `O=C1C(CC[S+]([O-])c2ccccc2)C(=O)N(c2ccccc2)N1c1ccccc1` (stereo not given) [SULFINPYRAZONE], the AC50 on Melanocortin receptor 3 is more than 10 µM; in assay [1] it was more than 10 µM; in assay [2], more than 30 µM; in [3] it was more than 10 µM; in assay [4], more than 10 µM; in assay [5], more than 10 µM. In addition, the AC50 is more than 10 µM in assay [6]; more than 10 µM on Adenosine receptor A1; more than 30 µM in [7]; more than 10 µM at Progesterone receptor; more than 10 µM at Motilin receptor.
On to `C=CC[C@@H]1/C=C(\C)C[C@H](C)C[C@H](OC)[C@H]2O[C@@](O)(C(=O)C(=O)N3CCCC[C@H]3C(=O)O[C@H](/C(C)=C/[C@@H]3CC[C@@H](O)[C@H](OC)C3)[C@H](C)[C@@H](O)CC1=O)[C@H](C)C[C@@H]2OC` [TACROLIMUS ANHYDROUS], for which the AC50 at Melanocortin receptor 3 was more than 30 µM; in assay [1], 7.49 µM and > 30 µM; in [2], more than 30 µM; in assay [3] it was 19.6 µM and > 10 µM; in assay [4], more than 10 µM; in assay [5], more than 10 µM. In addition, the AC50 was more than 10 µM in assay [6]; more than 30 µM at Adenosine receptor A1; more than 10 µM in [7]; more than 30 µM on Progesterone receptor; 9.44 µM and > 10 µM at Motilin receptor.
For the compound `Cc1onc(-c2ccccc2)c1-c1ccc(S(N)(=O)=O)cc1` [VALDECOXIB], the AC50 at Melanocortin receptor 3 was more than 30 µM; in assay [1], more than 30 µM; in [2] it was more than 10 µM; in [3] it was more than 30 µM; in [4] it was more than 10 µM; in assay [5], 21.1 µM. Besides, the AC50 in assay [6] was more than 10 µM; on Adenosine receptor A1 it was 27.7 µM; in assay [7], more than 10 µM; on Progesterone receptor, more than 30 µM; on Motilin receptor, more than 30 µM.
